From ChEMBL document CHEMBL1156007, “mu-Opioid/5-HT4 dual pharmacologically active agents-efforts towards an effective opioid analgesic with less GI and respiratory side effects (Part I)” (Bioorg Med Chem Lett, 2009)

Tests used:
[1] = molecular target: T1, 5-hydroxytryptamine receptor 4 (Homo sapiens, UniProt Q13639); assay: Displacement of [3H]GR-113808 from human recombinant 5-HT4 receptor
[2] = molecular target: T2, 5-hydroxytryptamine receptor 3A (Homo sapiens, UniProt P46098); assay: Displacement of [3H]granisetron from human recombinant 5-HT3 receptor expressed in HEK293 cells; assay type: cell-based
T2 sequence (P46098 whole entry): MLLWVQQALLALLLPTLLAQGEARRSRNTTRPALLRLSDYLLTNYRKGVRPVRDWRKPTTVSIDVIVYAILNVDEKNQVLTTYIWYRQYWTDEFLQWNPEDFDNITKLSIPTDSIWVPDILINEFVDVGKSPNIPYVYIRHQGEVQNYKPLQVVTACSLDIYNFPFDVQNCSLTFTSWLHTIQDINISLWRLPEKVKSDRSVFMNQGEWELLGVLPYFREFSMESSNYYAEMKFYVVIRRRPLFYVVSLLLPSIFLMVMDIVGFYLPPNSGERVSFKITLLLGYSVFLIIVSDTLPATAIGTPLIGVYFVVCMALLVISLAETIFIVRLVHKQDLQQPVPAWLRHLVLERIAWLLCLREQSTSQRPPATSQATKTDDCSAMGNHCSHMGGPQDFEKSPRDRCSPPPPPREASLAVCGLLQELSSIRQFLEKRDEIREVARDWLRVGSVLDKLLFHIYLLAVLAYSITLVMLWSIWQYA

[3] = molecular target: Mu-type opioid receptor (Homo sapiens, UniProt P35372); assay: Binding affinity to human mu opioid receptor
Mu-type opioid receptor, sequence (P35372 whole entry): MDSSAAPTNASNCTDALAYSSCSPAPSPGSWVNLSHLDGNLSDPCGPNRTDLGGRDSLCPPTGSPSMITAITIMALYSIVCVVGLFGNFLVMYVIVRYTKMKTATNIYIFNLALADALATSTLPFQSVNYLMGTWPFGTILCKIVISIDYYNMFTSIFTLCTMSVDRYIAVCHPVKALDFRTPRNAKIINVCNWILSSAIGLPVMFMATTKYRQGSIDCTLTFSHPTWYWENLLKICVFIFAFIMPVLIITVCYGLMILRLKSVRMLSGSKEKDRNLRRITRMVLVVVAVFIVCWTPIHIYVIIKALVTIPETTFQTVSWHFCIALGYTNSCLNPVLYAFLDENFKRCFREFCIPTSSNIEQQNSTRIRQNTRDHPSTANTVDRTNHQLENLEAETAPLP

[4] = molecular target: T2, 5-hydroxytryptamine receptor 3A; assay: Antagonist activity at human recombinant 5-HT3 receptor expressed in HEK293 cells; assay type: functional, cell-based
[5] = molecular target: T1, 5-hydroxytryptamine receptor 4; assay: Agonist activity at human recombinant 5-HT4 receptor; assay type: functional

T1 sequence (Q13639 whole entry): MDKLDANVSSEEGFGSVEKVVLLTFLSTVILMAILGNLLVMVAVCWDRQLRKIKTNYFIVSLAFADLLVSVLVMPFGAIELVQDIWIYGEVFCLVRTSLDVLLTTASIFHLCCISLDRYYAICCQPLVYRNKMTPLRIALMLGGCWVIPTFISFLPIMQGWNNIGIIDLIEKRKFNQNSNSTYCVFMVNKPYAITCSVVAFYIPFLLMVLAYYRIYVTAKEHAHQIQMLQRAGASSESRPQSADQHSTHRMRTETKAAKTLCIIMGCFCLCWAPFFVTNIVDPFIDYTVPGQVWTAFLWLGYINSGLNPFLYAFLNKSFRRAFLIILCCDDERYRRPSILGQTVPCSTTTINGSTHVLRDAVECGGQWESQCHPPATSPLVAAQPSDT

Compound	IC50 [1] [nM]	IC50 [2] [nM]	IC50 [3] [nM]	EC50 [4] [nM]	EC50 [5] [nM]
COc1cc(N)c(Cl)cc1C(=O)N[C@@H]1CCN(C[C@H]2CCCC[C@]2(O)c2cccc(O)c2)C[C@@H]1OC	> 10000	1600	> 10000		
COc1cc(N)c(Cl)cc1C(=O)NCCN(C)C[C@H]1CCCC[C@]1(O)c1cccc(O)c1	> 10000	3100	340		
COc1cc(N)c(Cl)cc1C(=O)NC1CCNCC1OC (racemic) [NORCISAPRIDE]	19	1600		2300	290
COc1cc(N)c(Cl)cc1C(=O)NCCN(C)CC1CCCCC1(O)c1cccc(O)c1 (racemic)	> 10000	2800	190		
COc1cccc([C@@]2(O)CCCC[C@@H]2CN2CC[C@H](NC(=O)c3cc(Cl)c(N)cc3OC)[C@H](OC)C2)c1	6100	790	> 10000		
COc1cccc([C@]2(O)CCCC[C@H]2CN(C)CCNC(=O)c2cc(Cl)c(N)cc2OC)c1	> 10000	4900	> 10000		
COc1cccc([C@]2(O)CCCC[C@H]2CN2CC[C@H](NC(=O)c3cc(Cl)c(N)cc3OC)[C@H](OC)C2)c1	4600	1700	> 10000		
COc1cc(N)c(Cl)cc1C(=O)N[C@H]1CCN(C[C@H]2CCCC[C@]2(O)c2cccc(O)c2)C[C@H]1OC	> 10000	390	> 10000		
COc1cccc([C@@]2(O)CCCC[C@@H]2CN(C)CCNC(=O)c2cc(Cl)c(N)cc2OC)c1	5000	3500	4500		
COc1cccc([C@]2(O)CCCC[C@H]2CN2CC[C@@H](NC(=O)c3cc(Cl)c(N)cc3OC)[C@@H](OC)C2)c1	3900	159	> 10000	> 10000	120
COc1cc(N)c(Cl)cc1C(=O)N[C@H]1CCN(C[C@@H]2CCCC[C@@]2(O)c2cccc(O)c2)C[C@H]1OC	9900	18	410		90
COc1cc(N)c(Cl)cc1C(=O)N[C@@H]1CCN(C[C@@H]2CCCC[C@@]2(O)c2cccc(O)c2)C[C@@H]1OC	> 10000	1400	> 10000		
COc1cc(N)c(Cl)cc1C(=O)NCCN(C)C[C@@H]1CCCC[C@@]1(O)c1cccc(O)c1	> 10000	2500	5100		
COc1cccc([C@@]2(O)CCCC[C@@H]2CN2CC[C@@H](NC(=O)c3cc(Cl)c(N)cc3OC)[C@@H](OC)C2)c1	> 10000	2800	> 10000		
